From patent US7241791B2, “Substituted 4-(indazol-3-yl)phenols” (Wyeth, priority 2002, dated 2007)

Legend:
human ERα [1] = target: T1, human ERα (Homo sapiens, UniProt P03372); experiment: NF-κB luciferase reporter (ER/NF-KB-luc) in Ad5-wt-hERα infected HAECT-1 cells; settings: for IC50: ER/NF-KB-luc IC50, Ad5-wt-ER infected HAECT-1 cells, IL-1β; for Emax: HAECT1, read-out: ER/NF-KB-luc % E2, efficacy relative to the maximal inhibition observed with E2
T1 sequence (P03372 1-595): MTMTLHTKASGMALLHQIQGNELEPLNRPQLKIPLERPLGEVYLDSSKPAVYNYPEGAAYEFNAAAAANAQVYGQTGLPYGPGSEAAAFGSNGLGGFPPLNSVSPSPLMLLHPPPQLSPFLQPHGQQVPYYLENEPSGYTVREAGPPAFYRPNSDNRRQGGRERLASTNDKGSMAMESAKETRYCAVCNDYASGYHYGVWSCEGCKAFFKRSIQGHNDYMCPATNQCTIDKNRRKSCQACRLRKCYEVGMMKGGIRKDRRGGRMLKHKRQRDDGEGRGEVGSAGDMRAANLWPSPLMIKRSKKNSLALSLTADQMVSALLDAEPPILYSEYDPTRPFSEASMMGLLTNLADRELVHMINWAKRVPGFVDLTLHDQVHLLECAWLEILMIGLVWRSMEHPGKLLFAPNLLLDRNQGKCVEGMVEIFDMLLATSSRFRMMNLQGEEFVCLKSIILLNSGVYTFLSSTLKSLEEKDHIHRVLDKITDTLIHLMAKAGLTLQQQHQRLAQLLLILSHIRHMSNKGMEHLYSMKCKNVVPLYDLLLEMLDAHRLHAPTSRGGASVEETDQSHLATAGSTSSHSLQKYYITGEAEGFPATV

human ERα [2] = target: T1, human ERα; experiment: IL-6 expression (ELISA, ER/IL-6) in Ad5-wt-hERα infected HAECT-1 cells; settings: for ER/IL-6 % E2: efficacy relative to the maximal inhibition observed with E2
human ERα [3] = target: T1, human ERα; experiment: Creatine kinase expression (ER/CK) in Ad5-wt-hERα infected HAECT-1 cells; settings: for ER/CK % E2: efficacy relative to the maximal stimulation observed with E2

IC50 (human ERα [1]) [nM]	Emax (human ERα [1]) [%]	IC50 (human ERα [2]) [nM]	ER/IL-6 % E2 (human ERα [2]) [% E2]	EC50 (human ERα [3]) [nM]	ER/CK % E2 (human ERα [3]) [% E2]	Structure (SMILES)
164	94	8130	110	–	–	N#Cc1ccc(-n2nc(-c3ccc(O)cc3O)c3ccc(O)cc32)cc1 [Example 15, 4-[3-(2,4-dihydroxyphenyl)-6-hydroxy-1H-indazol-1-yl]benzonitrile]
125	66	97	60	439	48	Oc1ccc(-c2nn(Cc3ccccc3)c3c(F)cccc23)cc1 [Example 145, 4-(1-benzyl-7-fluoro-1H-indazol-3-yl)phenol]
183	67	329	40	722	36	CCCCn1nc(-c2ccc(O)cc2)c2ccccc21 [Example 139, 4-(1-butyl-1H-indazol-3-yl)phenol]
53	73	761	67	–	–	Oc1ccc(-c2nn(-c3cccc(Br)c3)c3cc(O)ccc23)c(O)c1 [Example 14, 4-[1-(3-bromophenyl)-6-hydroxy-1H-indazol-3-yl]benzene-1,3-diol]
65	69	65	65	364	38	Cn1nc(-c2ccc(O)cc2)c2cccc(C(F)(F)F)c21 [Example 169, 4-[1-methyl-7-(trifluoromethyl)-1H-indazol-3-yl]phenol]
133	97	601	83	828	47	Oc1ccc(-c2nn(-c3ccc(OC(F)(F)F)cc3)c3cc(O)ccc23)c(O)c1 [Example 13, 4-{6-hydroxy-1-[4-(trifluoromethoxy)phenyl]-1H-indazol-3-yl}benzene-1,3-diol]
208	61	7610	73	1200	58	COc1ccccc1-n1nc(-c2ccc(O)cc2O)c2ccc(O)cc21 [Example 12, 4-[6-hydroxy-1-(2-methoxyphenyl)-1H-indazol-3-yl]benzene-1,3-diol]
60	54	2320	91	114	26	COc1ccc(-n2nc(-c3ccc(O)cc3O)c3ccc(O)cc32)cc1 [Example 11, 4-[6-hydroxy-1-(4-methoxyphenyl)-1H-indazol-3-yl]benzene-1,3-diol]
90	92	246	77	1830	54	Oc1ccc(-c2nn(-c3ccc(Br)cc3)c3cc(O)ccc23)c(O)c1 [Example 7, 4-[1-(4-bromophenyl)-6-hydroxy-1H-indazol-3-yl]benzene-1,3-di I]
319	67	115	49	527	30	Oc1ccc(-c2nn(Cc3ccccc3)c3c(Cl)cccc23)c(O)c1 [Example 149, 4-(1-benzyl-7-chloro-1H-indazol-3-yl)benzene-1,3-diol]
95	79	81	58	438	45	Oc1ccc(-c2nn(-c3ccccc3Cl)c3cc(O)ccc23)c(O)c1 [Example 16, 4-[1-(2-chlorophenyl)-6-hydroxy-1H-indazol-3-yl]benzene-1,3-diol]
195	82	380	72	815	65	Oc1ccc(-c2n[nH]c3cc(Cl)c(F)cc23)cc1 [Example 131, 4-(6-chloro-5-fluoro-1H-indazol-3-yl)phenol]
134	85	122	52	387	52	Cn1nc(-c2ccc(O)cc2)c2cccc(Cl)c21 [Example 126, 4-(7-chloro-1-methyl-1H-indazol-3-yl)phenol]
